Test results reported in patent publication US11878965B2, “Inhibitors of peptidylarginine deiminases” (Gilead Sciences, Inc., priority 2020, dated 2024).

Target: human PAD4 (Homo sapiens (Human), UniProt Q9UM07)
Experiment: In Vitro PAD4 BAEE Biochemical Assay
Conditions: geometric mean of multiple experiments
Method in brief: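 Deimination of BAEE substrate (3 mM) measured as ammonia via o-phthalaldehyde–DTT isoindole fluorescence, 405/535 nm. Tag-free bacterially expressed human PAD4 at 5 nM with 2 mM calcium chloride, pH 7.6 MOPS buffer, 30 min compound preincubation then 2 h reaction, both at 25 °C.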

[1] = human PAD4, BAEE substrate, 5 nM PAD4, 2 mM calcium chloride, 3 mM BAEE

Sequence of human PAD4 (Q9UM07 2-663): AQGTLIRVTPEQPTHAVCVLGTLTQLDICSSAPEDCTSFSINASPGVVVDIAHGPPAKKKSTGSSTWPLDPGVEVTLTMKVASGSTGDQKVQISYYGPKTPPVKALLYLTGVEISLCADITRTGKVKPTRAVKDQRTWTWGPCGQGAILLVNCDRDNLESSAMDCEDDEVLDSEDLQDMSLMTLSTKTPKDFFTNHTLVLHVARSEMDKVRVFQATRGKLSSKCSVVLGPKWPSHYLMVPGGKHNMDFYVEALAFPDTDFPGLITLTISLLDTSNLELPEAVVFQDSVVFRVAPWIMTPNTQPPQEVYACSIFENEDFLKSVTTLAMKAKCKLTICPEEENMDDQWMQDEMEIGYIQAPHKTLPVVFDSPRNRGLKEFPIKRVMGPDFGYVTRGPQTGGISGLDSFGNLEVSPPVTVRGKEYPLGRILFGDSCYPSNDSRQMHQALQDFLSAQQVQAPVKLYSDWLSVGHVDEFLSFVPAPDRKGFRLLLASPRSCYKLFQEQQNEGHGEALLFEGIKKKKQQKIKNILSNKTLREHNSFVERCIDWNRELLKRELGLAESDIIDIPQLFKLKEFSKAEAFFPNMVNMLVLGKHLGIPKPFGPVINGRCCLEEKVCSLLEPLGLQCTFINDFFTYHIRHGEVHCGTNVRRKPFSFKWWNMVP

SMILES: COc1cc(C(=O)N2[C@H]3CC[C@@H]2[C@H](N)C3)cc2nc(-c3cc4ccc([C@@H](C)NC(=O)N5CCCC5)nc4n3CC3CC3)n(C)c12 [Example 234, N-((R)-1-(2-(5-((1R,2R,4S)-2-amino-7-azabicyclo[2.2.1]heptane-7-carbonyl)-7-methoxy-1-methyl-1H-benzo[d]imidazol-2-yl)-1-(cyclopropylmethyl)-1H-pyrrolo[2,3-b]pyridin-6-yl)ethyl)pyrrolidine-1-carboxamide]
- IC50 [1]: 34.3 nM

SMILES: COc1cc(C(=O)N2[C@H]3CC[C@@H]2[C@H](N)C3)cc2nc(-c3cc4ccc([C@@H](C)NC(=O)C5CC(F)(F)C5)nc4n3CC3CC3)n(C)c12 [Example 204, N-((R)-1-(2-(5-((1R,2R,4S)-2-amino-7-azabicyclo[2.2.1]heptane-7-carbonyl)-7-methoxy-1-methyl-1H-benzo[d]imidazol-2-yl)-1-(cyclopropylmethyl)-1H-pyrrolo[2,3-b]pyridin-6-yl)ethyl)-3,3-difluorocyclobutane-1-carboxamide]
- IC50 [1]: 47.4 nM

SMILES: CCCCS(=O)(=O)N(C)c1ccc2cc(-c3nc4cc(C(=O)N5CCC[C@@H](N)C5)cc(OC)c4n3C)n(CC3CC3)c2n1 [Example 14, (R)-N-(2-(5-(3-aminopiperidine-1-carbonyl)-7-methoxy-1-methyl-1H-benzo[d]imidazol-2-yl)-1-(cyclopropylmethyl)-1H-pyrrolo [2,3-b]pyridin-6-yl)-N-methylbutane-1-sulfonamide]
- IC50 [1]: 249 nM

SMILES: COc1cc(C(=O)N2[C@H]3CC[C@@H]2[C@H](N)C3)cc2nc(-c3cc4ccc([C@@H](C)NC(=O)N5CC[C@@H](F)C5)cc4n3CC3CC3)n(C)c12 [Example 237, (R)-N-((R)-1-(2-(5-((1R,2R,4S)-2-amino-7-azabicyclo[2.2.1]heptane-7-carbonyl)-7-methoxy-1-methyl-1H-benzo[d]imidazol-2-yl)-1-(cyclopropylmethyl)-1H-indol-6-yl)ethyl)-3-fluoropyrrolidine-1-carboxamide]
- IC50 [1]: 18.5 nM

SMILES: CCN(c1ccc2cc(-c3nc4cc(C(=O)N5CCC[C@@H](N)[C@H]5C)cc(OC)c4n3CC3COC3)n(CC3CC3)c2n1)S(C)(=O)=O [Example 37, N-(2-(5-((2R,3R)-3-amino-2-methylpiperidine-1-carbonyl)-7-methoxy-1-(oxetan-3-ylmethyl)-1H-benzo[d]imidazol-2-yl)-1-(cyclopropylmethyl)-1H-pyrrolo [2,3-b]pyridin-6-yl)-N-ethylmethanesulfonamide]
- IC50 [1]: 235 nM

SMILES: COc1cc(C(=O)N2C[C@H](N)CC[C@@H]2C)cc2nc(-c3cc4ccc(N(C(F)F)S(C)(=O)=O)nc4n3CC3CC3)n(C)c12 [Example 38, N-(2-(5-((2S,5R)-5-amino-2-methylpiperidine-1-carbonyl)-7-methoxy-1-methyl-1H-benzo[d]imidazol-2-yl)-1-(cyclopropylmethyl)-1H-pyrrolo [2,3-b]pyridin-6-yl)-N-(difluoromethyl) methanesulfonamide]
- IC50 [1]: 93.4 nM

SMILES: COc1cc(C(=O)N2CCC[C@@H](N)C2)cc2nc(-c3cc4ccc(N5CCCNS5(=O)=O)nc4n3CC3CC3)n(C)c12 [Example 107, (R)-(3-aminopiperidin-1-yl)(2-(1-(cyclopropylmethyl)-6-(1,1-dioxido-1,2,6-thiadiazinan-2-yl)-1H-pyrrolo[2,3-b]pyridin-2-yl)-7-methoxy-1-methyl-1H-benzo[d]imidazol-5-yl) methanone]
- IC50 [1]: 538 nM

SMILES: COc1cc(C(=O)N2C[C@H](N)CCN2C)cc2nc(-c3cc4ccc([C@@H](C)NC(=O)c5ccccc5C)nc4n3CC3CC3)n(C)c12 [Example 194, N-((R)-1-(2-(5-((R)-5-amino-2-methylhexahydropyridazine-1-carbonyl)-7-methoxy-1-methyl-1H-benzo[d]imidazol-2-yl)-1-(cyclopropylmethyl)-1H-pyrrolo[2,3-b]pyridin-6-yl)ethyl)-2-methylbenzamide]
- IC50 [1]: 123 nM

SMILES: COc1cc(C(=O)N2[C@H]3CC[C@@H]2[C@H](N)C3)cc2nc(-c3cc4ccc([C@@H](C)NC(=O)c5ccccc5)nc4n3CC3CC3)n(C)c12 [Example 123, N-((R)-1-(2-(5-((1R,2R,4S)-2-amino-7-azabicyclo[2.2.1]heptane-7-carbonyl)-7-methoxy-1-methyl-1H-benzo[d]imidazol-2-yl)-1-(cyclopropylmethyl)-1H-pyrrolo[2,3-b]pyridin-6-yl)ethyl)benzamide]
- IC50 [1]: 29.2 nM

SMILES: COc1cc(C(=O)N2C[C@H](N)CCN2C)cc2nc(-c3cc4ccc([C@@H](C)NC(=O)C5(c6ccccc6)CC5)nc4n3CC3CC3)n(C)c12 [Example 160, N-((R)-1-(2-(5-((R)-5-amino-2-methylhexahydropyridazine-1-carbonyl)-7-methoxy-1-methyl-1H-benzo[d]imidazol-2-yl)-1-(cyclopropylmethyl)-1H-pyrrolo[2,3-b]pyridin-6-yl)ethyl)-1-phenylcyclopropane-1-carboxamide]
- IC50 [1]: 481 nM

SMILES: COc1nccc(-c2ccccc2)c1-c1ccc2cc(-c3nc4cc(C(=O)N5C[C@H](N)CC[C@@H]5C)cc(OC)c4n3C)n(CC3CC3)c2n1 [Example 277, ((2S,5R)-5-amino-2-methylpiperidin-1-yl)(2-(1-(cyclopropylmethyl)-6-(2-methoxy-4-phenylpyridin-3-yl)-1H-pyrrolo[2,3-b]pyridin-2-yl)-7-methoxy-1-methyl-1H-benzo[d]imidazol-5-yl)methanone]
- IC50 [1]: 3430 nM

SMILES: COc1cc(C(=O)N2C[C@H](N)[C@@H]3CC[C@H]2C3)cc2nc(-c3cc4ccc([C@@H](C)NC(=O)C(C)(C)F)nc4n3CC3CC3)n(C)c12 [Example 325, N-((R)-1-(2-(5-((1S,4R,5R)-4-amino-2-azabicyclo[3.2.1]octane-2-carbonyl)-7-methoxy-1-methyl-1H-benzo[d]imidazol-2-yl)-1-(cyclopropylmethyl)-1H-pyrrolo[2,3-b]pyridin-6-yl)ethyl)-2-fluoro-2-methylpropanamide]
- IC50 (recombinant PAD4 5 nM, 2 mM calcium chloride, 3 mM BAEE substrate): 91.8 nM

SMILES: C#CC(=O)N[C@@H]1CNC[C@H]1NC(=O)c1cc(OC)c2c(c1)nc(-c1cc3ccc(N(C(F)F)S(C)(=O)=O)nc3n1CC1CC1)n2C [Example 81, 2-(1-(cyclopropylmethyl)-6-((N-(difluoromethyl)methyl)sulfonamido)-1H-pyrrolo[2,3-b]pyridin-2-yl)-7-methoxy-1-methyl-N-((3R,4R)-4-propiolamidopyrrolidin-3-yl)-1H-benzo[d]imidazole-5-carboxamide]
- IC50 [1]: 4630 nM

SMILES: COc1cc(C(=O)N2CCC[C@@H](N)C2)cc2nc(-c3cc4ccc(N(C)S(=O)(=O)C5CC5)nc4n3CC3CC3)n(C)c12 [Example 8, (R)-N-(2-(5-(3-aminopiperidine-1-carbonyl)-7-methoxy-1-methyl-1H-benzo[d]imidazol-2-yl)-1-(cyclopropylmethyl)-1H-pyrrolo [2,3-b]pyridin-6-yl)-N-methylcyclopropanesulfonamide]
- IC50 [1]: 190 nM

SMILES: COc1cc(C(=O)N2[C@H]3CC[C@@H]2[C@H](N)C3)cc2nc(-c3cc4ccc([C@H]5CCCN5C(=O)C(C)(C)C)nc4n3CC3CC3)n(C)c12 [Example 246, 1-((R)-2-(2-(5-((1R,2R,4S)-2-amino-7-azabicyclo[2.2.1]heptane-7-carbonyl)-7-methoxy-1-methyl-1H-benzo[d]imidazol-2-yl)-1-(cyclopropylmethyl)-1H-pyrrolo[2,3-b]pyridin-6-yl)pyrrolidin-1-yl)-2,2-dimethylpropan-1-one]
- IC50 [1]: 48.4 nM
